This assay has as its target T1, elastase from porcine pancreas (EC 3.4.21.36) (Sus scrofa, UniProt P00772).
T1 construct: gene CELA1; commercial native enzyme from porcine pancreas (Sigma-Aldrich), mature; docking model PDB 1BRU (elastase 2) is not the assay sample
Briefly: N-succinyl-Ala-Ala-Ala-p-nitroanilide hydrolysis, absorbance at […] nm. Type of assay: biochemical.

T1 sequence (P00772 27-266): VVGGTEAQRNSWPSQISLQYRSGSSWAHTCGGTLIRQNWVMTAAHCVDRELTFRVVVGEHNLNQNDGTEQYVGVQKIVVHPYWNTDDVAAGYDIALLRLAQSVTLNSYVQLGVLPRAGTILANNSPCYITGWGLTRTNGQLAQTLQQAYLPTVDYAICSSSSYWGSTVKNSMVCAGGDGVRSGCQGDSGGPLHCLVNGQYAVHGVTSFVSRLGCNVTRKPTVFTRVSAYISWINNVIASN

On to `Oc1cc(O)c2c(c1)OC(c1ccc(O)c(O)c1)C(O)C2` (racemic) [catechin], for which the IC50 is 18.4 µM.

One may read the IC50 as the concentration that inhibits the measured activity by half.

Source of the values: paper PMC8587475, “Black Bean (Phaseolus vulgaris L.) Polyphenolic Extract Exerts Antioxidant and Antiaging Potential” (Molecules, 2021).
